The record followed here is patent publication US12018033B2, “Inhibitors of protein arginine deiminases” (Forward Therapeutics, Inc., priority 2018, dated 2024).

The term IC50 denotes the concentration that gives 50% inhibition.

Some results are limits rather than exact numbers.

T1 sequence (Q9UM07 2-663): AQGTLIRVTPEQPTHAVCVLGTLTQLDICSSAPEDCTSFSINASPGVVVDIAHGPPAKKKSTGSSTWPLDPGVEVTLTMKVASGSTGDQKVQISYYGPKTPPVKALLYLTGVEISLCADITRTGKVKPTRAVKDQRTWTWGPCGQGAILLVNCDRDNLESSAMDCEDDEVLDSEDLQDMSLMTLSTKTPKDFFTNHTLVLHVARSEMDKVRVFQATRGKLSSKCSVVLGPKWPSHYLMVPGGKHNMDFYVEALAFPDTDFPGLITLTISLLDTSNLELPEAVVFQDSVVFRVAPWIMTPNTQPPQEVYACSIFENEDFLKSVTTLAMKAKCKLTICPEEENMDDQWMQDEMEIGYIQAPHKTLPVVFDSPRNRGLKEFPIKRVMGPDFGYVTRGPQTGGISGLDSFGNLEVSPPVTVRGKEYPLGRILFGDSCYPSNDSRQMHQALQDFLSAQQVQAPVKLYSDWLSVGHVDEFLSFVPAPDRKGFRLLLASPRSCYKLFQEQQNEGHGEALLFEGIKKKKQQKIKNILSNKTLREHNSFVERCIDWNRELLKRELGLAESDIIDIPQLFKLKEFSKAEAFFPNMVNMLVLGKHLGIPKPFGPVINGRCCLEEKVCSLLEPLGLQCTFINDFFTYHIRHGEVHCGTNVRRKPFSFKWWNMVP

The test has as its target T1, Recombinant human PAD4 (2-663) (Homo sapiens, UniProt Q9UM07).
T1 construct: Recombinant human PAD4 (2-663) was expressed in E. coli; made in house; host or cells: E. coli
As to the kind of experiment: PAD4 Inhibition Assay. Conditions: 60 mins pre-incubation at RT; substrate BAEE with CaCl2; fluorescent signal (λex 405/λem 460). Type of test: biochemical. The procedure: Protein: Recombinant human PAD4 (2-663) was expressed in E. coli as an N-terminal Strep-tag and C-terminal 6-his tag fusion protein. Protein was purified using Strep-tactin resin followed by size exclusion chromatography. Tags were not removed during purification. Activity of the protein was determined using ammonia quantification assay.
PAD4 enzyme (10 μL) was diluted to concentration of 75 nM in assay buffer A (100 mM HEPES, pH 8, 50 mM NaCl, 2 mM DTT, 0.6 mg/mL BSA and 0.5% DMSO) and added to wells containing 10 μL of various concentrations of test compound, or DMSO vehicle in buffer A with 1.5% final DMSO concentration in a Corning high volume 384 well black plate. Following 60 mins pre-incubation at RT with gentle shaking, the reaction was initiated by the addition of 10 μL of substrate buffer containing 3 mM N-α-benzoyl-L-arginine ethyl ester (BAEE) and 600 μM CaCl2) in assay buffer A. The reaction was stopped after 60 mins with the addition of 15 μL stop/detection buffer containing 7.5 mM phthalaldehyde, 50 mM EDTA and 7.5 mM DTT in assay buffer A. Quenched reactions were incubated at RT for 45 mins before measuring fluorescent signal (λex 405/λem 460) on an Envision plate reader (Perkin Elmer Life Sciences, Waltham, Mass., USA).
In the case of `O=C(N[C@H]1CCNC1)c1cc2cc(Cl)c(F)c(F)c2[nH]1` [Example 26, (S)-5-Chloro-6,7-difluoro-N-(pyrrolidin-3-yl)-1H-indole-2-carboxamide], the 50% inhibitory concentration (IC50) lay in the range of 1 to 10 µM.
In the case of `N[C@H]1CN(C(=O)c2cc3cc(Br)c(F)c(F)c3[nH]2)C[C@H]1O` [Example 67, ((3S,4R)-3-amino-4-hydroxypyrrolidin-1-yl)(5-bromo-6,7-difluoro-1H-indol-2-yl)methanone], the 50% inhibitory concentration (IC50) was in the range of 1 to 10 µM.
As to `N[C@@H]1CCN(C(=O)c2cc3cc(Br)ccc3[nH]2)C1` [Example 48, (R)-(3-Aminopyrrolidin-1-yl)(5-bromo-1H-indol-2-yl)methanone], the IC50 lay in the range of 1 to 10 µM.
As to `O=C(NC1CNC1)c1cc2cc(Cl)c(F)c(F)c2[nH]1` [Example 23, N-(Azetidin-3-yl)-5-chloro-6,7-difluoro-1H-indole-2-carboxamide], the IC50 is not above 1 µM.
Regarding `N[C@H]1CN(C(=O)c2cc3cc(Cl)c(F)c(F)c3[nH]2)C[C@H]1O` [Example 32, ((3S,4R)-3-Amino-4-hydroxypyrrolidin-1-yl)(5-chloro-6,7-difluoro-1H-indol-2-yl)methanone], the IC50 fell in the range of 1 to 10 µM.
Next, `CN(C(=O)c1cc2cc(Cl)c(F)c(F)c2[nH]1)C1CNC1` [Example 52, N-(azetidin-3-yl)-5-chloro-6,7-difluoro-N-methyl-1H-indole-2-carboxamide]: 10 to 100 µM; `N[C@H]1CNC[C@@H]1NC(=O)c1cc2cc(Cl)c(F)c(F)c2[nH]1` [Example 30, N-((3S,4S)-4-Aminopyrrolidin-3-yl)-5-chloro-6,7-difluoro-1H-indole-2-carboxamide]: 10 to 100 µM; `O=C(c1cc2cc(Cl)c(F)c(F)c2[nH]1)N1CC[C@H]2CNC[C@H]21` [Example 57, (5-chloro-6,7-difluoro-1H-indol-2-yl)((3aS,6aS)-hexahydropyrrolo[3,4-b]pyrrol-1(2H)-yl)methanone]: 1 to 10 µM.
As for `O=C(c1cc2cc(Cl)c(F)c(F)c2[nH]1)N1C[C@H]2CNC[C@H]21` [Example 56, (1R,5S)-3,6-diazabicyclo[3.2.0]heptan-6-yl(5-chloro-6,7-difluoro-1H-indol-2-yl)methanone], the IC50 is 1 to 10 µM.
With `N[C@@H]1CCCN(C(=O)c2cc3cc(Cl)c(F)c(F)c3[nH]2)C1` [Example 38, (R)-(3-Aminopiperidin-1-yl)(5-chloro-6,7-difluoro-1H-indol-2-yl)methanone], the IC50 fell in the range of 10 to 100 µM.
Turning to `O=C(c1cc2cc(Cl)c(F)c(F)c2[nH]1)N1CC2(CCNC2)C1` [Example 61, (5-chloro-6,7-difluoro-1H-indol-2-yl)(2,6-diazaspiro[3.4]octan-2-yl)methanone], the IC50 is 10 to 100 µM.
`C[C@@H](CN)N(C)C(=O)c1cc2cc(Cl)c(F)c(F)c2[nH]1` [Example 64, (S)-N-(1-aminopropan-2-yl)-5-chloro-6,7-difluoro-N-methyl-1H-indole-2-carboxamide]: the IC50 was in the range of 1 to 10 µM.
For the molecule `C[C@H]1CNC[C@H]1NC(=O)c1cc2cc(Cl)c(F)c(F)c2[nH]1` [Example 14, 5-Chloro-6,7-difluoro-N-((3S,4S)-4-methylpyrrolidin-3-yl)-1H-indole-2-carboxamide], the IC50 is not above 1 µM.
Next, `N[C@@H]1CCN(C(=O)c2cc3cc(F)ccc3[nH]2)C1` [Example 49, (R)-(3-Aminopyrrolidin-1-yl)(5-fluoro-1H-indol-2-yl)methanone]: 10 to 100 µM; `N[C@@H]1CCN(C(=O)c2cc3cc(F)c(F)cc3[nH]2)C1` [Example 50, (R)-(3-Aminopyrrolidin-1-yl)(5,6-difluoro-1H-indol-2-yl)methanone]: 10 to 100 µM; `CO[C@@H]1CNC[C@H]1NC(=O)c1cc2cc(Cl)c(F)c(F)c2[nH]1` [Example 34, 5-Chloro-6,7-difluoro-N-((3R,4R)-4-methoxypyrrolidin-3-yl)-1H-indole-2-carboxamide]: 10 to 100 µM.
For `CC1(NC(=O)c2cc3cc(Cl)c(F)c(F)c3[nH]2)CNC1` [Example 53, 5-chloro-6,7-difluoro-N-(3-methylazetidin-3-yl)-1H-indole-2-carboxamide], the IC50 was in the range of 10 to 100 µM.
Turning to `O=C(N[C@@H]1CNC[C@@H]1O)c1cc2cc(Cl)c(F)c(F)c2[nH]1` [Example 16, 5-Chloro-6,7-difluoro-N-((3R,4S)-4-hydroxypyrrolidin-3-yl)-1H-indole-2-carboxamide], the IC50 lay within 1 to 10 µM.
As for `O=C(c1cc2cc(Cl)c(F)c(F)c2[nH]1)N1C[C@H]2CNC[C@H]2C1` [Example 59, (5-chloro-6,7-difluoro-1H-indol-2-yl)((3aR,6aS)-hexahydropyrrolo[3,4-c]pyrrol-2(1H)-yl)methanone], the IC50 fell in the range of 10 to 100 µM.
Turning to `O=C(N[C@H]1CCCNC1)c1cc2cc(Cl)c(F)c(F)c2[nH]1` [Example 39, (S)-5-Chloro-6,7-difluoro-N-(piperidin-3-yl)-1H-indole-2-carboxamide], the concentration for half-maximal inhibition (IC50) fell in the range of 10 to 100 µM.
On to `O=C(c1cc2cc(Cl)c(F)c(F)c2[nH]1)N1CC2(CNC2)C1` [Example 60, (5-chloro-6,7-difluoro-1H-indol-2-yl)(2,6-diazaspiro[3.3]heptan-2-yl)methanone], for which the concentration for half-maximal inhibition (IC50) fell in the range of 10 to 100 µM.
As for `N[C@H]1CN(C(=O)c2cc3cc(Br)c(F)c(F)c3[nH]2)C[C@@H]1O` [Example 65, ((3S,4S)-3-amino-4-hydroxypyrrolidin-1-yl)(5-bromo-6,7-difluoro-1H-indol-2-yl)methanone], the IC50 is 1 to 10 µM.
The result for `O=C(N[C@@H]1CCNC1)c1cc2cc(Cl)c(F)c(F)c2[nH]1` [Example 25, (R)-5-Chloro-6,7-difluoro-N-(pyrrolidin-3-yl)-1H-indole-2-carboxamide] reads 10 to 100 µM; that for `O=C(NC[C@@H]1CCNC1)c1cc2cc(Cl)c(F)c(F)c2[nH]1` [Example 63, (R)-5-chloro-6,7-difluoro-N-(pyrrolidin-3-ylmethyl)-1H-indole-2-carboxamide], 10 to 100 µM.
Turning to `N[C@@H]1CCN(C(=O)c2cc3cc(Cl)c(Cl)cc3[nH]2)C1` [Example 44, (R)-(3-Aminopyrrolidin-1-yl)(5,6-dichloro-1H-indol-2-yl)methanone], the IC50 was in the range of 1 to 10 µM.
On to `N[C@H]1CN(C(=O)c2cc3cc(Cl)c(F)c(F)c3[nH]2)C[C@@H]1O` [Example 22, ((3S,4S)-3-Amino-4-hydroxypyrrolidin-1-yl)(5-chloro-6,7-difluoro-1H-indol-2-yl)methanone], for which the half-maximal inhibitory concentration (IC50) was not above 1 µM.
`C[C@H]1CNC[C@@H]1NC(=O)c1cc2cc(Cl)c(F)c(F)c2[nH]1` [Example 36, 5-Chloro-6,7-difluoro-N-((3R,4S)-4-methylpyrrolidin-3-yl)-1H-indole-2-carboxamide]: the IC50 lay within 1 to 10 µM.
As for `N[C@H]1CN(C(=O)c2cc3cc(I)c(F)c(F)c3[nH]2)C[C@@H]1O` [Example 66, ((3S,4S)-3-amino-4-hydroxypyrrolidin-1-yl)(6,7-difluoro-5-iodo-1H-indol-2-yl)methanone], the IC50 is 1 to 10 µM.
As for `N[C@H]1CN(C(=O)c2cc3cc(Cl)c(F)c(F)c3[nH]2)C[C@@H]1F` [Example 37, ((3S,4S)-3-Amino-4-fluoropyrrolidin-1-yl)(5-chloro-6,7-difluoro-1H-indol-2-yl)methanone], the IC50 was in the range of 1 to 10 µM.
